No end group written: not given here.
Tests used:
[1] = antioxidative activity by linoleic acid-β-carotene degradation method; format: biochemical
Method: The antioxidative activity of the peptide fractionated in Example 1 was measured utilizing the β-carotene degradation effect of an oxide of linoleic acid. Specifically, a 300 ml Erlenmeyer flask was charged with 0.5 ml of a β-carotene solution (1 mg/ml chloroform), 0.2 ml of a linoleic acid solution (100 mg/ml chloroform), and 1.0 ml of a Tween 40 solution (200 mg/ml chloroform). After completely removing chloroform using nitrogen gas, 100 ml of distilled water was added to dissolve the components. 9.0 ml of a 0.2 M phosphate buffer (pH: 7.0) was then added to the solution to prepare a linoleic acid-β-carotene solution. 0.18 ml of the linoleic acid-β-carotene solution was added to a […] microwell plate to which 0.02 ml of the peptide fraction was provided. The absorbance S0 at 490 nm was measured immediately after the addition. When preparing the linoleic acid-β-carotene solution, the amount of the β-carotene solution was appropriately adjusted so that the absorbance S0 was about 1.2 (1.1 to 1.3). The microwell plate was placed in a thermostat bath at 50° C. immediately after measuring the absorbance S0, and the peptide fraction was incubated for 30 minutes. The absorbance S30 was measured immediately after incubation. A decrease (ΔS=S0−S30) in absorbance at 490 nm over 30 minutes was then calculated. 70% ethanol was used as a blank instead of the sample and subjected to the above operation. Specifically, the absorbance B0 immediately after adding the linoleic acid-β-carotene solution and the absorbance B30 after being kept at 50° C. for 30 minutes were measured, and a decrease (ΔB=B0−B30) in absorbance at 490 nm over 30 minutes was calculated. The antioxidative activity (antioxidation rate (%)) was determined by substituting the resulting values in the following expression. Antioxidation rate (%)=[ΔB−ΔS]/(ΔB)×100
As a positive control, carnosine (β-Ala-L-His; manufactured by Peptide Institute, Inc.) (muscle-derived antioxidative peptide) prepared to a concentration of 0.01 μg/ml, 0.1 μg/ml, or 1 μg/ml was used.
The antioxidative activity of the peptide obtained in Example 2 was measured in the same manner as in Test Example 1. As a positive control, carnosine (β-Ala-L-His; manufactured by Peptide Institute, Inc.) (muscle-derived antioxidative peptide) and catechin (manufactured by Wako Pure Chemical Industries, Ltd.) (1 μm, 10 μm, or 100 μm) were used. Table 2 and FIG. 3 show the evaluation results for the antioxidative activity of the synthetic peptide.
The antioxidative activities of the two peptides (i.e., tryptic digests) obtained in Examples 3 and the tryptic digest before fractionation were measured using a carotene degradation method in the same manner as in Test Example 2. The peptide concentration was determined by dissolving each peptide in 500 μl of pure water and measuring the peptide concentration using a Micro BCA Protein assay kit (manufactured by Pierce). As a positive control, carnosine (β-Ala-L-His; manufactured by Peptide Institute, Inc.) and catechin (manufactured by Wako Pure Chemical Industries, Ltd.) were used in the same manner as in Test Example 2. A diluted solution (1 ng/ml, 10 ng/ml, and 100 ng/ml) was prepared for each fragment, and the antioxidative activity was evaluated using the β-carotene degradation method.

[2] = system: rat primary-cultured visceral fat cells (VAC01); assay: peptide adipocyte administration experiment; format: cell-based
Method: Experiments were conducted in which the peptide isolated from the cheese in Example 1 was administered to primary-cultured visceral fat cells.
The experiments were conducted using rat primary-cultured visceral fat cells (VAC01, manufactured by Cell Garage Co., Ltd.) and a visceral fat cytodifferentiation medium (manufactured by Cell Garage Co., Ltd.). Cells preserved in a frozen state in accordance with the protocol provided by Cell Garage Co., Ltd. were melted and disseminated in a 24-well plate (zeroth day). A culture medium (peptide concentration: 100 μM, 50 μM, 10 μM, or 0 μM) in which the synthetic peptide was dissolved was added to the 24-well plate on the second day, fifth day, and seventh day, and the synthetic peptide was cultured. The culture supernatant liquid was collected on the fifth day, seventh day, and eighth day to measure the adiponectin level. The cells were collected on the eighth day. The enzyme activity of glycerol-3-phosphate dehydrogenase (GPDH) in the cells, the DNA content of each well, and the intracellular fat accumulation level were measured. GPDH is an enzyme that functions when triglyceride is synthesized from glucose to produce mature fat cells. In this example, preadipocytes were differentiated, and the effect of administration of the peptide according to the present invention was observed.
The DNA content was determined using a DNA quantization kit (manufactured by Cell Garage Co., Ltd.).
The glycerol-3-phosphate dehydrogenase (GPDH) enzyme activity in the cells was measured using a GPDH activity measurement kit (manufactured by Cell Garage Co., Ltd.) in accordance with the protocol provided by Cell Garage Co., Ltd. The measurement results were standardized by the content of DNA extracted from each well.
The adiponectin level in the culture supernatant liquid was measured using an adiponectin ELISA kit (manufactured by Otsuka Pharmaceutical Co., Ltd.). The measurement results were standardized by the content of DNA extracted from each well.
The intracellular fat accumulation was determined by fat staining with oil red O and absorbance measurement using a fat staining kit (manufactured by Cell Garage Co., Ltd.).

[3] = sample concentration 0.01 μg/ml, Test Example 1
[4] = sample concentration 0.1 μg/ml, Test Example 1
[5] = sample concentration 1 μg/ml, Test Example 1
[6] = sample concentration 1 μg/ml, Test Example 2
[7] = sample concentration 10 μg/ml, Test Example 2
[8] = sample concentration 100 μg/ml, Test Example 2
[9] = Test Example 3, tryptic digest peptides, 1, 10, 100 ng/ml, FIG. 5

Row | Compound | Antioxidative activity (%) [1, 3] [%] | Antioxidative activity (%) [1, 4] [%] | Antioxidative activity (%) [1, 5] [%] | Antioxidative activity (%) [1, 6] [%] | Antioxidative activity (%) [1, 7] [%] | Antioxidative activity (%) [1, 8] [%] | antioxidative activity (in words) [1, 9] | other results
1 | NCCC(=O)N[C@@H](Cc1cnc[nH]1)C(=O)O [Carnosine, β-Ala-L-His, reference compound] | 32.9 | 57.8 | 78.3 | 7.07 | 21.2 | 48.41 | – | –
2 | HPIKHQGLPQ | 13.0 | 41.0 | 64.6 | 32.86 | 61.13 | 63.6 | – | antioxidative activity (in words) ([1]; Test Example 1, peptide purified from Gouda cheese): had antioxidative activity (radical scavenger activity); antioxidative activity (in words) ([1]; Test Example 2, synthetic peptide, FIG. 3): strong antioxidative activity; production of adiponectin (per unit DNA content) vs cells without peptide ([2]; culture supernatant, seventh day, 10, 50, 100 μM, FIG. 6): significantly more adiponectin; cell DNA content of each well vs group without peptide ([2]; eighth day, Student t-test): a significant difference in cell DNA content was not observed; fat accumulation (oil red O staining) vs cells without peptide ([2]; eighth day, Student t-test, FIG. 7): a significant difference in fat accumulation was not observed; GPDH activity (per unit DNA content) vs group without peptide ([2]; peptide 100 μM, eighth day): A significant difference was not observed; fat accumulation (oil red O staining) ([2]; peptide 100 μM, eighth day): decreased to only a small extent; GPDH activity (per unit DNA content) vs group without peptide ([2]; peptide 10 or 50 μM, eighth day): significantly higher
3 | HQGLPQ | – | – | – | – | – | – | strong antioxidative activity | –
4 | His-Pro-Ile-Lys (HPIK; Bovine) | – | – | – | – | – | – | strong antioxidative activity | –
5 | catechin [reference compound] | – | – | – | 52.65 | 84.45 | 97.17 | – | –

— patent US8207131B2, “Peptide” (Megmilk Snow Brand Co., Ltd., priority 2006, dated 2012)
